Reference: US5356926A, “3-alkyloxy-, aryloxy-, or arylalkyloxy-benzo [β]thiophene-2-carboxamides as inhibitors of cell adhesion” (Warner-Lambert Company, priority 1993, dated 1994)
One block for each compound: values may come before it.

Tested on: human neutrophil adhesion to TNFα, IL-1α, and LPS-stimulated human umbilical vein endothelial cells
Experiment: Inhibition of human neutrophil adhesion to stimulated HUVEC (51Cr-labeled neutrophils)
Format: cell-based
Source text: METHOD FOR DETERMINING THE INHIBITION OF HUMAN NEUTROPHIL ADHESION TO TNFα, IL-1α, AND LPS-STIMULATED HUMAN UMBILICAL VEIN ENDOTHELIAL CELLS BY 3-ALKYLOXY-, ARYLOXY-, OR ARYLALKYLOXY BENZO[b]THIOPHENE-2-CARBOXAMIDES
Neutrophils were isolated from anticoagulant-treated venous blood obtained from healthy human volunteers according to the method of Ferrante and Thong (J. Immunol. Methods 1978;24:389-93).
Second passage human umbilical vein endothelial cells (HUVEC) (Clonetics, San Diego, Calif.) were seeded into Falcon 24-well cell culture plates (Becton Dickinson, Lincoln Park, N.J.) at approximately 2×10^4 cells per well. The cells were grown to confluent monolayers in endothelial basal medium (EBM, Clonetics) supplemented with 5% fetal calf serum (Hyclone Laboratories, Logan, Utah), 10 ng/mL EGF, 1 μg/mL hydrocortisone, 0.4% bovine brain extract (Clonetics) in 5% CO2 at 37° C.
Neutrophils (30×10^6) were labeled for 60 minutes at 37° C. with 100 μCi Na^51 CrO4 (ICN Biomedicals, Costa Mesa, Calif.) in 2.0 mL Ca^2+ - and Mg^2+ -free Hanks' balanced salt solution (HBSS, GIBCO Laboratories, Grand Island, N.Y.). The cells were washed two times in HBSS and suspended in unsupplemented EBM.
Stimulation of HUVEC with tumor necrosis factor-α (TNFα) (Genzyme, Cambridge, Mass.) , interleukin (IL-1α) (Genzyrne) or E. coli 0111:B4 lipopolysaccharide (LPS) (Sigma) in the presence or absence of drug was initiated 4 hours prior to the addition of neutrophils. The suspension medium was unsupplemented EBM or supplemented EBM for studies with cytokines or LPS, respectively. […] Immediately prior to addition of ^51 Cr-labeled neutrophils to the HUVEC monolayers, the cultures were washed with 1 mL unsupplemented media to remove stimulus and/or drug. Neutrophils (5×10^5) were then added to the HUVEC in 0.5 mL unsupplemented media and incubated at 37° C. for 30 minutes. Nonadherent neutrophils were removed by aspiration. Following an additional wash, adherent neutrophils were lysed with 0.5 mL 1N NH4 OH overnight at 37° C. Lysates were collected and the radioactivity in each well was determined by gamma ray spectroscopy.

IC50 (Table 1): 1200 nM
Compound: CC(C)Oc1c(C(N)=O)sc2ccc(O)cc12 [Example 10, 5-Hydroxy-3-(1-methylethoxy)benzo[b]thiophene-2-carboxamide]

Compound: COc1ccc2sc(C(N)=O)c(OC(C)(C)C)c2c1 [Example 30, 3-(1,1-Dimethylethoxy)-5-methoxybenzo[b]thiophene2-carboxamide]
inhibition at 100 µM (Table 1, at 100 μM): 100%

Compound: Cc1ccc2sc(C(N)=O)c(OC(C)C)c2c1 [Example 4, 5-Methyl-3-(1-methylethoxy)benzo[b]thiophene-2-carboxamide]
inhibition at 100 µM (Table 1, at 100 μM): 61%

Compound: COc1ccc2sc(C(=O)NCc3ccccc3)c(OC(C)C)c2c1 [Example 27, 5-Methoxy-3-(1-methylethoxy)-N-(phenylmethyl)benzo[b]thiophene-2-carboxamide]
inhibition at 100 µM (Table 2, at 100 μM): 35%

Compound: COc1ccc2sc(C(=O)NC(C)C)c(OC(C)C)c2c1 [Example 35, 5-Methoxy-3-(1-methylethoxy)-N-(1-methylethyl)benzo[b]thiophene-2-carboxamide]
inhibition at 100 µM (Table 2, at 100 μM): 100%

Compound: CC(C)Oc1c(C(N)=O)sc2cc(Cl)ccc12 [Example 31, 6-Chloro-3-(1-thylethoxy)benzo[b]thiophene-2-carboxamide]
inhibition at 100 µM (Table 1, at 100 μM): 26%

Compound: CNC(=O)c1sc2ccc(OC)cc2c1OC(C)C [Example 24]
inhibition at 100 µM (Table 2, at 100 μM): 78%

Compound: COc1ccc2sc(C(=O)Nc3ccccc3)c(OC(C)C)c2c1 [Example 26, 5-Methoxy-3-(1-methylethoxy)-N-phenylbenzo[b]thiophene-2-carboxaraide]
inhibition at 100 µM (Table 2, at 100 μM): 12%

Compound: CC(C)Oc1c(C(N)=O)sc2ccc(N)cc12 [Example 32, 5-Amino-3-(1-methylethoxy)benzo[b]thiophene-2-carboxamide]
inhibition at 100 µM (Table 1, at 100 μM): 49%

Compound: COc1ccc2sc(C(=O)Nc3cccc(CC(=O)O)c3)c(OC(C)C)c2c1 [Example 20, 3-[[[5-Methoxy-3-(1-methylethoxy)benzo[b]thien-2-yl]carbonyl]amino]benzeneacetic acid]
inhibition at 100 µM (Table 2, at 100 μM): 70%

Compound: COc1ccc2c(OC(C)C)c(C(N)=O)sc2c1 [Example 11, 6-Methoxy-3-(1-methylethoxy)benzo[b]thiophene-2-carboxamide]
inhibition at 100 µM (Table 1, at 100 μM): 24%

Compound: COc1ccc2sc(C(N)=O)c(OC)c2c1 [Example 7, 3,5-Dimethoxybenzo[b]thiophene-2-carboxamide]
inhibition at 100 µM (Table 1, at 100 μM): 60%

Compound: CCOC(=O)c1ccccc1NC(=O)c1sc2ccc(OC)cc2c1OC(C)C [Example 14]
inhibition at 100 µM (Table 2, at 100 μM): 32%

Compound: CC(C)Oc1c(C(N)=O)sc2ccc([N+](=O)[O-])cc12 [Example 5, 3-(1-Methylethoxy)-5-nitrobenzo[b]thiophene2-carboxamide]
inhibition at 100 µM (Table 1, at 100 μM): 40%

Compound: COc1ccc2sc(C(=O)NCCCC(=O)O)c(OC(C)C)c2c1 [Example 34, 4-[[[5-Methoxy-3-(1-methylethoxy)benzo[b]thien-2-yl]carbonyl]amino]butanoicacid]
inhibition at 100 µM (Table 2, at 100 μM): 35%

Compound: COc1ccc2sc(C(=O)Nc3ccc(CC(=O)O)cc3)c(OC(C)C)c2c1 [Example 18, 4-[[[5-Methoxy-3-(1-methylethoxy)benzo[b]thien2-yl]carbonyl]amino]benzeneacetic acid]
inhibition at 100 µM (Table 2, at 100 μM): 32%

Compound: COc1ccc2sc(C(=O)NCc3ccc(C(=O)O)cc3)c(OC(C)C)c2c1 [Example 16, 4-[[[5-Methoxy-3-(1-methylethoxy)benzo[b]thien-2-yl]carbonyl]aminomethyl]benzoic acid]
inhibition at 100 µM (Table 2, at 100 μM): 47%

Compound: CCNC(=O)c1sc2ccc(OC)cc2c1OC(C)C [Example 25]
inhibition at 100 µM (Table 2, at 100 μM): 64%

Compound: COC(=O)Cc1ccc(NC(=O)c2sc3ccc(OC)cc3c2OC(C)C)cc1 [Example 17]
inhibition at 100 µM (Table 2, at 100 μM): 27%

Compound: COc1ccc2sc(C(=O)Nc3ccsc3C(=O)O)c(OC(C)C)c2c1 [Example 23]
inhibition at 100 µM (Table 2, at 100 μM): 20%

Compound: COc1ccc2c(c1)C(OC(C)C)=C(C(N)=O)S2(=O)=O [Example 29, 5-Methoxy-3-(1-methylethoxy)benzo[b]thiophene2-carboxamide 1,1'-dioxide]
inhibition at 100 µM (Table 3, at 100 μM): 4%

Compound: COC(=O)CCCCNC(=O)c1sc2ccc(OC)cc2c1OC(C)C [Example 21, Methyl 5-[[[5-methoxy-3-(1-methylethoxy)benzo[b]thien2-yl]carbonyl]amino]pentanoate]
inhibition at 100 µM (Table 2, at 100 μM): 8%

Compound: COc1cccc2c(OC(C)C)c(C(N)=O)sc12 [Example 6, 7-Methoxy-3-(1-methylethoxy)benzo[b]thiophene2-carboxamide]
inhibition at 100 µM (Table 1, at 100 μM): 35%

Compound: COc1ccc2sc(C(N)=O)c(OCc3ccccc3)c2c1 [Example 8, 5-Methoxy-3-(phenylmethoxy)benzo[b]thiophene2-carboxamide]
inhibition at 100 µM (Table 1, at 100 μM): 57%

Compound: COc1ccc2sc(C(=O)NCCCCC(=O)O)c(OC(C)C)c2c1 [Example 22, 5-[[[5-Methoxy-3-(1-methylethoxy)benzo[b]thien2-yl]carbonyl]amino]pentanoicacid]
inhibition at 100 µM (Table 2, at 100 μM): 9%

Compound: COc1ccc2sc(C(=O)Nc3cccc(C(=O)O)c3)c(OC(C)C)c2c1 [Example 13, 3-[[[5-Methoxy-3-(1-methylethoxy)benzo[b]thien-2-yl]carbonyl]amino]benzoic acid]
inhibition at 100 µM (Table 2, at 100 μM): 28%

Compound: COC(=O)CCCNC(=O)c1sc2ccc(OC)cc2c1OC(C)C [Example 33, Methyl 4-[[[5-methoxy-3-(1-methylethoxy)benzo[b]thien-2-yl]carbonyl]amino]butanoate]
inhibition at 100 µM (Table 2, at 100 μM): 100%

Compound: CC(C)Oc1c(C(N)=O)sc2ccc(Cl)cc12 [Example 3, 5-Chloro-3-(1-methylethoxy)benzo[b]thiophene-2-carboxamide]
inhibition at 100 µM (Table 1, at 100 μM): 72%

Compound: COC(=O)Cc1cccc(NC(=O)c2sc3ccc(OC)cc3c2OC(C)C)c1 [Example 19, Methyl 3-[[[5-Methoxy-3-(1-methylethoxy)benzo[b]thien-2-yl]carbonyl]amino]benzeneacetate]
inhibition at 100 µM (Table 2, at 100 μM): 45%

Compound: COc1ccc2sc(C(=O)Nc3ccccc3C(=O)O)c(OC(C)C)c2c1 [Example 15, 2-[[[5-Methoxy-3-(1-methylethoxy)benzo[b]thien2-yl]carbonyl]amino]benzoic acid]
inhibition at 100 µM (Table 2, at 100 μM): 35%
